Source: patent US20100190856A1, “Novel Polyhydroxylated Compounds as Fatty Acid Synthase (FASN) Inhibitors” (UNIVERSIDAD COMPLUTENSE DE MADRID, priority 2007, published 2010)
“Also recorded” adds a separate entry of the source. Like-named read-outs stand apart in the source and are kept apart here.

Legend:
AKT = assay: Immunoblot analysis of AKT and phospho-AKT in SK-Br3 cells; format: cell-based, human; details: for time after treatment at which a marked decrease of p-AKT was observed / expression levels of p-AKT proteins: SK-Br3, 30 μM; for expression levels of p-AKT proteins: 6 hours after treatment; for active form of Akt: within 2 h after treatment
Protocol: Following the treatment of SK-Br3 cells with the studied compound at the desired concentrations and time intervals, cells were harvested by treatment with trypsin-EDTA solution, washed twice with PBS and stored at −80° C. The cells were lysed in lysis buffer (1 mM EDTA, 150 mM NaCl, 100 μg/mL PMSF and 50 mM Tris-HCl, pH 7.5) and kept at 4° C. while they were routinely mixed every 2 min on the vortex during 30 min. A sample was taken for measurement of protein content by a BioRad assay (Bio-Rad Laboratories). Equal amounts of protein were heated in sodium dodecyl sulphate (SDS) sample buffer (Laemmli) for 5 min at 95° C., separated on a 3-8% SDS-polyacrylamide gel (FASN, p185^HER2/neu, phospho-p185^HER2/neu) or 4-12% SDS-polyacrylamide gel (AKT, phospho-AKT, ERK1/2, phospho-ERK1/2 and PARP) and transferred onto nitrocellulose membranes. The membranes were incubated for 1 h at room temperature in blocking buffer (2.5% powdered-skim milk in TBS-T [10 mM Tris-HCl pH 8.0, 150 mM NaCl and 0.05% Tween-20]) to prevent non-specific antibody binding. The primary antibody used was a monoclonal antibody. Antibody dilution was prepared in blocking solution and blots were incubated with monoclonal antibody overnight at 4° C. […] Blots were re-probed with an antibody for β-actin to control for protein loading and transfer.

FASN = target: T1, FASN (Homo sapiens, UniProt P49327); assay: Fatty acid synthase activity assay in SK-Br3 cells (NADPH oxidation, particle-free supernatants); format: cell-based; parameters: FASN activity, % of control cells / FASN activity reduced to / reduction of FASN activity: concentration or dose not given beside the values; details: for inhibition of FASN activity (in words): SK-Br3 cells treated 6, 12 and 24 hours; for FASN activity, % of control cells: SK-Br3 cells, 24 h exposure
T1 construct: endogenous in cells; host or cells: SK-Br3 breast cancer cells
T1 sequence (P49327 whole entry): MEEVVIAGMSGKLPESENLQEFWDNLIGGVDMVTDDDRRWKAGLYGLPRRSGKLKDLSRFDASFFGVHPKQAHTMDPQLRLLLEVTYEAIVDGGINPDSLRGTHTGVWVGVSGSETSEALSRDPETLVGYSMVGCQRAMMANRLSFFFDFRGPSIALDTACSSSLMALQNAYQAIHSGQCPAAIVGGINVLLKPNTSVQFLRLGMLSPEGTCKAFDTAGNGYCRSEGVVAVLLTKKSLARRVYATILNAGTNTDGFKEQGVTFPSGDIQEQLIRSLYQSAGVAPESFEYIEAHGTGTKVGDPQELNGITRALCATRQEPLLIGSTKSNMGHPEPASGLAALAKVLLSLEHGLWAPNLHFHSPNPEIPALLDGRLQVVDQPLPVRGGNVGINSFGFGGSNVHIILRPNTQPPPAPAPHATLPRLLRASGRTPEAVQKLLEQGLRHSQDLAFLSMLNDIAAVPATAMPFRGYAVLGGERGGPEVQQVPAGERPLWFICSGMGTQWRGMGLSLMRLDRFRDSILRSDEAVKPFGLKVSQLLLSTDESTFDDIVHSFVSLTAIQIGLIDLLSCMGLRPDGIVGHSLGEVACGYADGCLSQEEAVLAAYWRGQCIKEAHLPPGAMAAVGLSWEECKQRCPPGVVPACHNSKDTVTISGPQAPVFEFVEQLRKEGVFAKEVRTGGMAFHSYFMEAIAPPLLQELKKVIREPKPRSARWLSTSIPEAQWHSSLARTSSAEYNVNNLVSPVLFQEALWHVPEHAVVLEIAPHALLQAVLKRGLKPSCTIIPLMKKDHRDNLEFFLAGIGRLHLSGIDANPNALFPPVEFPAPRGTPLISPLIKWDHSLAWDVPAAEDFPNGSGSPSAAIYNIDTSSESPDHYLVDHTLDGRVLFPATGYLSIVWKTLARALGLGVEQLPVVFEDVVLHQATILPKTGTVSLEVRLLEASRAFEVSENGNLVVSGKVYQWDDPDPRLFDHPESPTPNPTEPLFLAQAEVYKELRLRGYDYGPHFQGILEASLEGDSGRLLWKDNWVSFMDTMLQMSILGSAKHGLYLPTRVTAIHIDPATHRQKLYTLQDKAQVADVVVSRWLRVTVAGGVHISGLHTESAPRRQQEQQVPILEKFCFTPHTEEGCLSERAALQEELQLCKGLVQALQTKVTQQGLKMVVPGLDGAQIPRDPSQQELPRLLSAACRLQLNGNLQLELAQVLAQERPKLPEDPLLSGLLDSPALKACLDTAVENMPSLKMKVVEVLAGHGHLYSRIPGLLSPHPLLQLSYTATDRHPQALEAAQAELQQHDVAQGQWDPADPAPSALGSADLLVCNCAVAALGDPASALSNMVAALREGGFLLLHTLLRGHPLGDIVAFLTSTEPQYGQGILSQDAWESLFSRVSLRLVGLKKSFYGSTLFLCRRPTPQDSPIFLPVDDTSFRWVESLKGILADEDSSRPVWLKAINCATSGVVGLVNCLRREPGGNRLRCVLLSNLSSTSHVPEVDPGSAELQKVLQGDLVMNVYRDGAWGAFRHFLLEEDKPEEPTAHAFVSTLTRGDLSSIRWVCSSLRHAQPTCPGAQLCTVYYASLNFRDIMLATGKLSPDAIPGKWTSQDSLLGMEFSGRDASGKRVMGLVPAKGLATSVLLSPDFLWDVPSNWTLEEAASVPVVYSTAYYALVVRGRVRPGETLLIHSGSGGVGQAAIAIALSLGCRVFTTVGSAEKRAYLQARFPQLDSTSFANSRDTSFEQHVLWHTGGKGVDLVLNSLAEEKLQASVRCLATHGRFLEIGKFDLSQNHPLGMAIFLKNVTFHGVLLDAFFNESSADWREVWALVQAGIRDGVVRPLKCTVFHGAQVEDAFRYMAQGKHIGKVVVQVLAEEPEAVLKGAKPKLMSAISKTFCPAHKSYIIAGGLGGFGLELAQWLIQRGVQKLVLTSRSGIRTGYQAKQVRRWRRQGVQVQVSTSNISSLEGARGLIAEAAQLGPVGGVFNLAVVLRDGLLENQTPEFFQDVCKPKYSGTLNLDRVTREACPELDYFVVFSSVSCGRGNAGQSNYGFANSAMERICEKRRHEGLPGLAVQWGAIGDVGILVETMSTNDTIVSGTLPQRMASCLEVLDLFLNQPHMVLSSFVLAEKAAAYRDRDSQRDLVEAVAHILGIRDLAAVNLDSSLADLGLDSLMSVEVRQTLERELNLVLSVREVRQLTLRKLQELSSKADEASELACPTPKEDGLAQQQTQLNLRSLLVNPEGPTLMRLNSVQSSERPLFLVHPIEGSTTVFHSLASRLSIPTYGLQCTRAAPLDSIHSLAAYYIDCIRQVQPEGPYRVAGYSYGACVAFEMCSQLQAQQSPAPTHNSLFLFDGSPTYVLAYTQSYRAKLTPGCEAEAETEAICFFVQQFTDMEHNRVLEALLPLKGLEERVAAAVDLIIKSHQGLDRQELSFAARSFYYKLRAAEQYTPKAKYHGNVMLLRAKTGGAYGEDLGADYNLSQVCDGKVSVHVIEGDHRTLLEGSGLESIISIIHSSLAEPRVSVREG
Protocol: FASN activity of compounds a, b, e, f, h, i, k, m and q was assayed in particle-free supernatants by recording spectrophotometrically at 37° C. (Lambda Bio 20, Perkin Elmer, EUA; using UV Kinlab 2.80.02 software) the decrease of A340nm due to the oxidation of NADPH, as we previously described. After 6, 12, 24 h of exposure to the tested compound, the cells were harvested by treatment with trypsin-EDTA solution, pelleted by centrifugation, washed twice and resuspended in cold PBS. The cells were sonicated during 30 min at 4° C. (PSelecta ultrasons) and centrifuged for 15 min at 4° C. to keep supernatants particle-free. A sample was taken to measure the protein content by a BioRad assay (Bio-Rad Laboratories). One-hundred and twenty micrograms of protein were pre-incubated during 15 min at 37° C. in 0.2 M of potassium phosphate buffer, pH 7.0, for temperature equilibration. The sample was then added to the reaction mixture: 200 mM potassium phosphate buffer, pH 7.0, 1 mM EDTA (Sigma), 1 mM dithiothreitol (Sigma), 30 μM acetyl-CoA (Sigma), 0.24 mM NADPH (Sigma), in 0.3 mL reaction volume were monitored at 340 nm for 3 min to measure the background NADPH oxidation. After the addition of 50 μM of malonyl-CoA (Sigma), the reaction was assayed for additional 10 min to determine FASN-dependent oxidation of NADPH. Rates were corrected for the background rate of NADPH oxidation in the presence of acetyl-CoA. FASN activity was expressed in nmol NADPH oxidized min^−1 mg protein^−1.

[1] = system: SK-Br3 breast cancer cells; assay: MTT cytotoxicity assay, SK-Br3 breast cancer cells; format: cell-based, human; details: for IC50: MTT, 48 h, read-out: IC50, growth inhibition, SK-Br3
Protocol: (§1) MCF-7 and MDA-MB-231 breast cancer cells were obtained from the American Type Culture Collection (ATCC) and were routinely grown in Dulbecco's modified Eagle's medium (DMEM, Gibco) containing 10% fetal bovine serum (FBS, Bio-Whittaker), 1% L-glutamine, 1% sodium pyruvate, 50 U/mL penicillin and 50 μg/mL streptomycin. SK-Br3 breast cancer cells were obtained from Eucellbank (Universidad de Barcelona, Spain) and were passaged in McCoy's 5 A medium containing 10% FBS, 1% L-glutamine, 1% sodium pyruvate, 50 U/mL penicillin and 50 μg/mL streptomycin. Non-malignant fibroblasts N-1 were obtained from Eucellbank (Universidad de Barcelona, Spain) and were passaged in DMEM medium containing 10% FBS, 1% L-glutamine, 1% sodium pyruvate, 50 U/mL penicillin and 50 μg/mL streptomycin. The cells remained free of Mycoplasma and were propagated in adherent culture according to established protocols. Cells were maintained at 37° C. in a humidified atmosphere of 95% air and 5% CO2.
(§2) Drug sensitivity was determined using a standard colorimetric MTT (3-4,5-dimethylthiazol-2-yl-2,5-diphenyltetrazolium bromide) assay. Briefly, cells were plated out at a density of 7×10^3 cells/100 μL/well in 96-well microtitre plates and allowed an overnight period for attachment. Then the medium was removed and fresh medium along with various concentrations of the tested compound were added to the cultures for a period of 48 h. Following the treatment, the cells were fed with drug-free medium (100 μL/well) and 10 μL of MTT solution (5 mg/mL; Sigma, St. Louis, Mo.), and the incubation was prolonged for 3 h at 37° C. After carefully removing the supernatants, the MTT-formazan crystals formed by metabolically viable cells were dissolved in dimethyl sulphoxide (100 μL/well) and the absorbance was measured at 570 nm in a multi-well plate reader (Model Anthos Labtec 2010 1.7 reader).

[2] = system: MDA-MB-231 breast cancer cells; assay: MTT cytotoxicity assay, MDA-MB-231 breast cancer cells; format: cell-based, human; details: Homo sapiens, MDA-MB-231 cells, 48 h, read-out: IC50, growth inhibition, MDA-MB-231
Protocol: as §1, §2

Compound | time after treatment at which a marked decrease of p-AKT was observed (AKT) | expression levels of p-AKT proteins (AKT) | active form of Akt (AKT) | inhibition of FASN activity (in words) (FASN) | FASN activity, % of control cells (FASN) | reduction of FASN activity (FASN; after 6 h of cell exposure) | reduction of FASN activity (FASN; after 24 h of cell exposure) | relative IC50 ratio of EGCG to compound [1] | IC50 ([1]; Homo sapiens, SK-BR-3, 48 h) | IC50 [1] | IC50 [2]
O=C(Oc1cc(OC(=O)c2cc(O)c(O)c(O)c2)c2ccccc2c1)c1cc(O)c(O)c(O)c1 [f, 1,3-bis[(3,4,5-trihydroxybenzoyl)oxy]naphthalene] | 24 h | low decrease | marked decrease | inhibit FASN activity; also recorded: decreased in a time-dependent manner | 10±4% | 50% | 50% | 7.5 | 21.3 ± 6.7 µM | 20 µM | 78.7 ± 4 µM
O=C(Oc1ccc(OC(=O)c2cc(O)c(O)c(O)c2)c2ccccc12)c1cc(O)c(O)c(O)c1 [i, 1,4-bis[(3,4,5-trihydroxybenzoyl)oxy]naphthalene] | 12 h | low decrease | marked decrease | inhibit FASN activity; also recorded: decreased in a time-dependent manner | 31±16% | 50% | 50% | 5.4 | 28.7 ± 0.3 µM | 28 µM | 62.5 ± 10.6 µM
